Laboratory results published in patent US11840527B2, “Non-fused thiophene derivatives and their uses” (ENYO PHARMA, priority 2018, dated 2023).

What was measured:
NFκB = NFκB reporter assay, TNFα stimulation of A549 reporter cells; assay type: cell-based; details: Homo sapiens; A549 NFκB-NanoLuciferase reporter cells, 4 ng/ml TNFα, 6 hours
Text: Compounds of the present invention have been tested for their capacity to inhibit NFκB.
The NFκB reporter construct was made by cloning 5 NFκB responsive elements upstream of a NanoLuciferase reporter gene flanked by AAVS1 genomic sequences.
NFκB Responsive element fused with NanoLuciferase and SV40 late Poly(A) signal was amplified from pNL3.2-NFκB-Nluc (Promega) using NFκB-NLUC-F and NFκB-NLUC-R primers and inserted by Infusion (TaKaRa) in AAVS1 SA-2A-puro-pA donor plasmid (Hockemeyer et al, Nat Biotechnol. 2009, 27, 851-7) digested by Sall. pCRISPR AAVS1-T2 expressing a guide RNA (gRNA) to target human AAVS1 (T2 target sequence) was constructed by inserting AAVS1-T2A hybridized primers in pLentiCRISPR v2-blast (Sanjana et al, Nat Methods. 2014, 11, 783-4) digested by Bsmb1.
A549 cells were transfected by the plasmids and puromycine selected for 5 days (1 μg mL-1). Then clones were obtained by limiting dilution and selected to maximize TNFα dependent NFkB-NanoLuciferase induction.
The reporter cells were seeded on a 96-well plate for overnight with DMEM including 10% FBS. Test compounds were added at varying concentrations. The cells then were treated with 4 ng/ml TNFα (Peprotech, ref E251) in DMEM+10% FBS. NanoGlo luciferase assay (Promega) was carried out 6 hours later. Luminescence was measured using a Spark 20M spectrofluorimeter (Tecan). Values were normalized to the luminescence measured in untreated cells.

[1] = molecular target: T1, CISD3 Gene Product (Miner2) (Homo sapiens, UniProt P0C7P0); assay: Stability of Fe-S cluster binding of purified NEET protein (absorbance 458 nm); assay type: biochemical; details: for Residual cluster bound at end of experiment (Percentage Absorbance 458 nm at time zero): CISD3 gene product, at 180 minutes, vehicle control (DMSO) 11%; for Residual cluster bound at end of experiment (Percentage Absorbance 458 nm at time zero) / Time (in minutes) to achieve 50% loss of bound cluster (Absorbance 458 nm): 60 μM compound; for Stabiliser of Fe—S cluster binding (time to 50% loss increased by more than 25% vs control) / Time (in minutes) to achieve 50% loss of bound cluster (Absorbance 458 nm): Miner2; for Stabiliser of Fe—S cluster binding (time to 50% loss increased by more than 25% vs control): at the concentrations tested; for Time (in minutes) to achieve 50% loss of bound cluster (Absorbance 458 nm): pH 6, 37° C., 20 μM protein, run time 180 minutes, vehicle control 60
T1 sequence (P0C7P0 15-127): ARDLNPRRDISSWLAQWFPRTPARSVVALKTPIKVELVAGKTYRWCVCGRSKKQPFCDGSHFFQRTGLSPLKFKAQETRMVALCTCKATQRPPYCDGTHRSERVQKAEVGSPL
Experimental: (§1) The modulator effect on the NEET proteins encoded by human CISD1, CISD2, and CISD3 genes by the compounds of the invention has been tested and is reported below. Particularly, the biochemical function of the NEET proteins is measured by the stability of Fe—S cluster binding of the purified NEET proteins.
(§2) The Fe—S cluster binding capacity of NEET proteins is known to be coordinated by four amino-acids in a stretch of 16 (three Cysteine and one Histidine). As the lability of the Fe—S cluster of NEET proteins is sensitive to the environment, cluster stability measurements are one of the measures of interactions of NEET proteins with small molecules and compounds. NEET protein/2Fe-2S cluster stability can be assessed by monitoring the decay in absorbance of its characteristic 458-nm peak (characteristic of the oxidized 2Fe-2S cluster) over time. Each NEET protein (mitoNEET, NAF-1 and Miner 2) was tested for its Fe—S binding in the absence or presence of a compound according to the invention (see table 3 below). The rate of cluster release (time in minutes to achieve 50% loss of bound Fe—S cluster) was compared for each NEET protein in the presence of one of the compounds of the invention (in a 1:3 protein:compound molar ratio) relative to each protein alone.
(§3) At pH 6, all the three NEET proteins (mitoNEET, NAF-1 and Miner 2) have a characteristic rate of loss of the bound Fe—S cluster that can be measured by the decrease of absorbance at wavelength 458 nm over time, using a spectrophotometer. Thus, Bis-Tris buffer (100 mM Bis-Tris pH6, 100 mM Nacl) was used at pH 6 to dilute either DMSO (Blank sample: Bis-Tris Buffer pH 6, 66 μM DMSO), DMSO and one of the three NEET proteins (Control sample: Bis-Tris Buffer pH 6, 66 μM DMSO, 20 μM purified NEET protein) or DMSO, one of the three NEET proteins and a compound of the invention (Test sample: Bis-Tris Buffer pH 6, 66 μM DMSO, 20 μM purified NEET protein, 60 μM compound of the invention).
(§4) A reaction mix containing DMSO diluted in the Bis-Tris Buffer with or without a compound of the invention was prepared. The purified NEET protein was the last component added to the reaction mix which was then aliquoted into 4 replicates in 96 wells plates. The absorbance at wavelength 458 nm was taken at 5 minutes intervals at 37° C. with a spectrofluorimeter. The assay run time for CISD2 gene product (NAF-1) was 500 minutes and 180 minutes for both the CISD 1 gene product (mitoNEET) and the CISD3 gene product (Miner 2).
(§5) In addition to time monitoring, residual bound Fe—S cluster to NEET protein was measured at the final point of the spectrometry assay for each Test sample and compared to the Control sample data (in parenthesis table 3). This residual binding is measured by the differential percentage between the absorbance 458 nm at time zero and the absorbance 458 nm at the end of the experiment (i.e. respectively 500 or 180 minutes as described hereabove), showing the percentage of NEET protein still able to bind Fe—S cluster.
(§6) Analysis of the absorbance enables the time for which 50% loss of bound Fe—S cluster is reached (i.e. a 50% absorbance decrease at 458 nm) for each Test sample and each Control sample (in parenthesis table 3) to be determined. The data are then compared to determine whether the compound of the invention stabilizes or destabilizes the NEET protein/Fe—S cluster binding.
(§7) Stabilisers of Fe—S cluster binding by the NEET proteins slow the release of bound Fe—S (i.e. increase the time needed to reach 50% Fe—S cluster bound loss by more than 25% for the Test sample compared to the Control sample). As illustrated by table 3, at the concentrations tested, stabilisers of CISD1 Gene Product (mitoNEET) are the compounds #9, #18, #26, #2, #1, and #42. Stabilisers of CISD2 Gene Product (NAF-1) are the compounds #2, #1, and #40. Stabilisers of CISD3 Gene Product (Miner2) are the compounds #9, #18, #26, #2, #1, and #42.

[2] = molecular target: T2, CISD2 Gene Product (NAF-1) (Homo sapiens, UniProt Q8N5K1); assay: as above; assay type: biochemical; details: 60 μM compound; for Residual cluster bound at end of experiment (Percentage Absorbance 458 nm at time zero): at 500 minutes, vehicle control 3%; for Time (in minutes) to achieve 50% loss of bound cluster (Absorbance 458 nm): pH 6, 37° C., 20 μM protein, run time 500 minutes, vehicle control 310
T2 sequence (Q8N5K1 57-135 limits assumed): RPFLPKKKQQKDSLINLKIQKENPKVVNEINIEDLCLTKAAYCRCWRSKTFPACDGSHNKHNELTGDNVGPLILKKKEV
Experimental: as §1, §2, §3, §4, §5, §6, §7

[3] = molecular target: T3, CISD1 Gene Product (mitoNEET) (Homo sapiens, UniProt Q9NZ45); assay: as above; assay type: biochemical; details: for Residual cluster bound at end of experiment (Percentage Absorbance 458 nm at time zero): at 180 minutes, vehicle control 16%; for Residual cluster bound at end of experiment (Percentage Absorbance 458 nm at time zero) / Time (in minutes) to achieve 50% loss of bound cluster (Absorbance 458 nm): 60 μM compound; for Stabiliser of Fe—S cluster binding (time to 50% loss increased by more than 25% vs control): at the concentrations tested; for Time (in minutes) to achieve 50% loss of bound cluster (Absorbance 458 nm): pH 6, 37° C., 20 μM protein, run time 180 minutes, vehicle control 80
T3 sequence (Q9NZ45 33-108 limits assumed): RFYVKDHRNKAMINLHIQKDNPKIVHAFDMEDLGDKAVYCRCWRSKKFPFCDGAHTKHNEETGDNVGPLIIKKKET
Experimental: as §1, §2, §3, §4, §5, §6, §7

[4] = tested on: H1N1 (influenza A/New Caledonia/20/99); assay: Antiviral effect on A549 cells infected with H1N1; assay type: cell-based, H1N1 A/New Caledonia/20/99 virus; details: Influenza A virus, MOI 0.1, 48 h post-infection, MUNANA neuraminidase readout
Summary of the method: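 A549 cells dosed with test compounds over a concentration range and infected at once with clinical isolate H1N1 A/New Caledonia/20/99 (MOI 0.1) in DMEM with […] TPCK trypsin, 37 °C. At 48 h, supernatant neuraminidase activity measured with MUNANA substrate (1 h, 37 °C); 4-MU fluorescence at ex 365/em 450 nm.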

| SMILES | EC50 (NFκB) | Residual cluster bound at end of experiment (Percentage Absorbance 458 nm at time zero) [1] | Stabiliser of Fe—S cluster binding (time to 50% loss increased by more than 25% vs control) [1] | Time (in minutes) to achieve 50% loss of bound cluster (Absorbance 458 nm) [1] | Residual cluster bound at end of experiment (Percentage Absorbance 458 nm at time zero) [2] | Time (in minutes) to achieve 50% loss of bound cluster (Absorbance 458 nm) [2] | Residual cluster bound at end of experiment (Percentage Absorbance 458 nm at time zero) [3] | Stabiliser of Fe—S cluster binding (time to 50% loss increased by more than 25% vs control) [3] | Time (in minutes) to achieve 50% loss of bound cluster (Absorbance 458 nm) [3] | IC50 [4] |
| --- | --- | --- | --- | --- | --- | --- | --- | --- | --- | --- |
| O=C(Nc1scc(C2CC3CCC2C3)c1C(=O)O)c1ccccc1 (centres unmarked) [Compound #9, 2-Benzamido-4-norbornan-2-yl-thiophene-3-carboxylic acid] | 1100 nM | 57% (11%) | Stabilisers | during 180 minutes | 17% (3%) | 370 (310) minutes | 20% (16%) | stabilisers | 100 (80) minutes | 210 nM |
| O=C(Nc1sc(Cl)c(C2CCCC2)c1C(=O)O)c1ccccc1 [Compound #18, 2-Benzamido-5-chloro-4-cyclopentyl-thiophene-3-carboxylic acid] | 1100 nM | 69% (11%) | Stabilisers | during 180 minutes | 38% (3%) | 240 (310) minutes | 52% (16%) | stabilisers | during 180 minutes | 64.8 nM |
